In patent publication US20240287062A1, “NAPHTHYRIDONE COMPOUNDS FOR INHIBITION OF RAF KINASES AND/OR BCR-ABL TYROSINE KINASES” (Enliven Inc., priority 2021, published 2024):

Test system: HepG2 (NRAS Q61L)
Experiment: Cell viability assay (CellTiter Glo)
Format: cell-based
Settings: Homo sapiens, HepG2, 120 h, HepG2, 750 cells per well, read-out: BRAF Cytotoxicity (IC50, nM) HEPG2
Procedure: Cell viability was measured in the following MAPK pathway mutant cancer cell lines: A375 (BRAF V600E), HepG2 (NRAS Q61L), SK-MEL-30 (NRAS Q61K), and OCI-AML-2 (MBNL1-CRAF fusion). Cell viability was also measured in K562 cells.
A375, HepG2, SK-MEL-30 and OCI-AML-2 cells were grown in the appropriate growth medium as described in Table B2 below, and harvested at 50-80% confluence. Cells were counted and seeded at their appropriate density (see Table B1) in a 384-well plate (Corning 3570). A375, HepG2 and SK-MEL-30 were allowed to adhere overnight prior to treatment and the OCI-AML-2 were treated immediately for the indicated drug treatment times (Table 6).
Table 6 provides the growth media, number of cells seeded per well and drug treatment times for the each cell line. K562 cells were grown as described in Example B1 above.
Compounds were dissolved in DMSO and serially diluted. Serially-diluted compound or a DMSO only control (high control, “HC”) was added to the plated cells in each well. Compounds were tested at concentrations of about 10 μM to 0.51 nM, using three-fold dilutions. The final proportion of DMSO never exceeded 0.1%.
Plates were placed in a 37° C., […] incubator for the indicated treatment times (Table B1). Plates were then removed from the incubator and equilibrated for 15 minutes at room temperature. 40 μl of CellTiter Glo reagent (Promega) was added to measure the relative level of metabolically active cells by quantifying intracellular ATP concentrations. Plates were incubated for 30 minutes at room temperature, and luminescence was measured. Percent viability was normalized to a vehicle control only using the following formula: 0 viability=100×(LumSample−LumLC)/(LumHC−LumLC). Graphical curves were fitted using a nonlinear regression model with a sigmoidal dose response.

Cc1c(F)cncc1-c1cc2cnc(NC(=O)C3CC3)cc2n(C)c1=O [Compound 2, N-[3-(5-fluoro-4-methylpyridin-3-yl)-1-methyl-2-oxo-1,6-naphthyridin-7-yl]cyclopropanecarboxamide]
IC50: 334 nM

Cc1c(F)cncc1-c1cc2cnc(NC(=O)[C@@H]3C[C@@H]3F)cc2n(C)c1=O [Compound 28, (1S,2S)-2-fluoro-N-[3-(5-fluoro-4-methylpyridin-3-yl)-1-methyl-2-oxo-1,6-naphthyridin-7-yl]cyclopropane-1-carboxamide]
IC50: 496 nM
